# Assays:
# [1] = Inhibition of HIV1 gp160 by cell-cell fusion inhibition assay; design: species or system Human immunodeficiency virus 1
# [2] = Permeability from apical to basolateral side of human Caco-2 cells at 5 uM; assay type: ADME, cell-based; details: read-out: permeability
# [3] = Permeability from apical to basolateral side in human Caco-2 cells at 5 uM; assay type: ADME, cell-based; details: read-out: permeability
# [4] = target: T1, Voltage-gated inwardly rectifying potassium channel KCNH2 (Homo sapiens, UniProt Q12809); test: Inhibition of human ERG at 10 uM
# [5] = Metabolic stability in human liver microsomes assessed as intrinsic clearance at 1 uM; assay type: ADME, Microsome
# [6] = Membrane permeability across dog RRCK at 2 uM; assay type: ADME, cell-based, Canis lupus familiaris, MDCKII-LE; details: MDCK, read-out: permeability
# [7] = Lipophilicity, log D of the compound; assay type: physicochemical; details: octanol/water
# [8] = Absorption in rat at 3 mg/kg, po; assay type: ADME, organism-based; design: dose 3 mg/kg, route oral; details: in vivo, read-out: Activity
# [9] = AUC in rat at 3 mg/kg, po; assay type: ADME, organism-based; design: dose 3 mg/kg, route oral; details: plasma
# [10] = Volume of distribution in rat at 1 mg/kg, iv; assay type: ADME, organism-based; design: dose 1 mg/kg, route intravenous; details: in vivo
# [11] = test system: Rattus norvegicus; test: Unbound clearance in rat at 1 mg/kg, iv; assay type: ADME, organism-based; design: dose 1 mg/kg, route intravenous; details: in vivo
# [12] = target: T1, Voltage-gated inwardly rectifying potassium channel KCNH2; test: Inhibition of human ERG
# [13] = test system: Rattus norvegicus; test: fAUC in rat at 1 mg/kg, iv; assay type: ADME, organism-based; design: dose 1 mg/kg, route intravenous; details: in vivo
# [14] = test system: Rattus norvegicus; test: fAUC in rat at 3 mg/kg, po; assay type: ADME, organism-based; design: dose 3 mg/kg, route oral; details: in vivo
# [15] = Oral bioavailability in rat at 3 mg/kg, po; assay type: ADME, organism-based; details: in vivo
# [16] = test system: Rattus norvegicus; test: Unbound volume of distribution in rat at 1 mg/kg, iv; assay type: ADME, organism-based; design: dose 1 mg/kg, route intravenous; details: in vivo
# [17] = Metabolic stability in rat liver microsomes assessed as intrinsic clearance; assay type: ADME, Microsome
# [18] = AUC in rat at 1 mg/kg, iv; assay type: ADME, organism-based; design: dose 1 mg/kg, route intravenous; details: plasma
# [19] = Clearance in rat at 1 mg/kg, iv; assay type: ADME, organism-based; design: dose 1 mg/kg, route intravenous; details: in vivo
# [20] = Terminal half life in rat at 1 mg/kg, iv; assay type: ADME, organism-based; design: dose 1 mg/kg, route intravenous; details: in vivo, read-out: beta t1/2 (converted)
# [21] = Volume of distribution in rat at 1 mg/kg, iv and 2 mg/kg, po; assay type: ADME, organism-based; details: in vivo
# [22] = Half life in rat at 1 mg/kg, iv and 2 mg/kg, po; assay type: ADME, organism-based; details: in vivo
# [23] = Oral bioavailability in rat at 1 mg/kg, iv and 2 mg/kg, po; assay type: ADME, organism-based; details: in vivo
# [24] = Clearance in rat at 1 mg/kg, iv and 2 mg/kg, po; assay type: ADME, organism-based; details: in vivo
# T1 sequence (Q12809 whole entry): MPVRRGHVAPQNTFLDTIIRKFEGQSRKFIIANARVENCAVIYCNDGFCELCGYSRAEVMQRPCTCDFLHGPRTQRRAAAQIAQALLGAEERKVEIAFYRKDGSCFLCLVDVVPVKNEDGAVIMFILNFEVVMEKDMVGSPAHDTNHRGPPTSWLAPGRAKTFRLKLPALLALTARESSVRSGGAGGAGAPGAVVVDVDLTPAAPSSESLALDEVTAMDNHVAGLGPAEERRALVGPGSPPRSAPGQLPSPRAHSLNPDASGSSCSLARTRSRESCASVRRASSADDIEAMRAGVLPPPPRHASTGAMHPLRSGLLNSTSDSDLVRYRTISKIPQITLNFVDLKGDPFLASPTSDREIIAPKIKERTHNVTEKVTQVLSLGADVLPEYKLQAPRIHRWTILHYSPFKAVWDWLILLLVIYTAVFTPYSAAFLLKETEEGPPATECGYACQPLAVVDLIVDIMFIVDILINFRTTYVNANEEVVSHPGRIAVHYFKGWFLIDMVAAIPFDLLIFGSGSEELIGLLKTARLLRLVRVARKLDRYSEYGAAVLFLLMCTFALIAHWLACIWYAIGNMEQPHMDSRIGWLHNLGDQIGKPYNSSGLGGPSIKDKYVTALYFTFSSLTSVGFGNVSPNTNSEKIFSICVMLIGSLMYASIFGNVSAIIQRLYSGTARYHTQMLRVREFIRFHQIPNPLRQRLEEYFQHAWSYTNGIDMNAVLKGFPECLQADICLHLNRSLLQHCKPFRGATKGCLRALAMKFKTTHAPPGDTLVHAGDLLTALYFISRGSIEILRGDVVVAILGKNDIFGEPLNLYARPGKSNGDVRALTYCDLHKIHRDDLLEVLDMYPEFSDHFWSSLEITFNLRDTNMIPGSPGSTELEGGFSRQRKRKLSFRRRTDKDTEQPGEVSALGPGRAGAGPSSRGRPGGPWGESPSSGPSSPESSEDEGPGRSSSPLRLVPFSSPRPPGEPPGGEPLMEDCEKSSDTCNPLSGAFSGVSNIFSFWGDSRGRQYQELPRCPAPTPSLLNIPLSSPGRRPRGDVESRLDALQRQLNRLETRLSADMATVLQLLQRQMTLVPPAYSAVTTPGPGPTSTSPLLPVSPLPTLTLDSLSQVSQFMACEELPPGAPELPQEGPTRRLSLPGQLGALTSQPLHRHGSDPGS
Structure (SMILES),IC50 [1],inhibition (INH) [4],microsomal CLint at 1 µM [5],Papp at 2 µM [6],other results
Cc1nc2ccccc2n1C1C[C@H]2CC[C@@H](C1)N2CC[C@H](NC(=O)c1ccc(S(C)(=O)=O)cc1)c1cccc(F)c1 (stereo not given in full),40 nM,–,–,–,–
Cc1nc2ccc(F)cc2n1C1C[C@H]2CC[C@@H](C1)N2CCC(NC(=O)C1CC[S+]([O-])CC1)c1cccc(F)c1 (stereo not given in full),0.01 nM,Not Active,–,–,Papp A→B at 5 µM [2]: 2 ×10⁻⁶ cm/s; Papp A→B at 5 µM [3]: 18 ×10⁻⁶ cm/s
Cc1nc2cc(F)ccc2n1C1C[C@H]2CC[C@@H](C1)N2CCC(NC(=O)C1CC[S+]([O-])CC1)c1cccc(F)c1 (stereo not given in full),0.4 nM,Not Active,93 µL/min/mg,2 ×10⁻⁶ cm/s,–
CCc1nc2ccccc2n1C1C[C@H]2CC[C@@H](C1)N2CCC(NC(=O)C1CC[S+]([O-])CC1)c1cccc(F)c1 (stereo not given in full),0.05 nM,Not Active,89 µL/min/mg,2 ×10⁻⁶ cm/s,–
Cc1nc2ccc(F)cc2n1C1C[C@H]2CC[C@@H](C1)N2CC[C@H](NC(=O)C1CCS(=O)(=O)CC1)c1cccc(F)c1 (stereo not given in full),0.01 nM,–,10 µL/min/mg,2 ×10⁻⁶ cm/s,Papp A→B at 5 µM [2]: 5 ×10⁻⁶ cm/s; Papp A→B at 5 µM [3]: 31 ×10⁻⁶ cm/s; logD [7]: 2.9; Fa [8]: 3%
Cc1nc2cc(F)ccc2n1C1C[C@H]2CC[C@@H](C1)N2CC[C@H](NC(=O)C1CCS(=O)(=O)CC1)c1cccc(F)c1 (stereo not given in full),0.03 nM,Not Active,14 µL/min/mg,2 ×10⁻⁶ cm/s,Papp A→B at 5 µM [2]: 3 ×10⁻⁶ cm/s; Papp A→B at 5 µM [3]: 21 ×10⁻⁶ cm/s
CCc1nc2ccccc2n1C1C[C@H]2CC[C@@H](C1)N2CC[C@H](NC(=O)C1CCS(=O)(=O)CC1)c1cccc(F)c1 (stereo not given in full),0.3 nM,Not Active,25 µL/min/mg,3 ×10⁻⁶ cm/s,–
Cc1nc2ccccc2n1C1C[C@H]2CC[C@@H](C1)N2CC[C@H](NC(=O)c1ccc([S+](C)[O-])cc1)c1cccc(F)c1 (stereo not given in full),40 nM,–,–,–,–
Cc1nc2ccncc2n1C1C[C@H]2CC[C@@H](C1)N2CC[C@H](NC(=O)c1ccc([S+](C)[O-])cc1)c1cccc(F)c1 (stereo not given in full),2 nM,–,–,–,–
Cc1nc2ccc(F)cc2n1C1C[C@H]2CC[C@@H](C1)N2CC[C@H](NC(=O)c1ccc([S+](C)[O-])cc1)c1cccc(F)c1 (stereo not given in full),1 nM,–,–,–,–
Cc1nc2cc(F)ccc2n1C1C[C@H]2CC[C@@H](C1)N2CC[C@H](NC(=O)c1ccc([S+](C)[O-])cc1)c1cccc(F)c1 (stereo not given in full),36 nM,–,–,–,–
Cc1nc2ccncc2n1C1C[C@H]2CC[C@@H](C1)N2CC[C@H](NC(=O)c1ccc(S(C)(=O)=O)cc1)c1cccc(F)c1 (stereo not given in full),1 nM,–,–,–,–
Cc1nc2cc(F)ccc2n1C1C[C@H]2CC[C@@H](C1)N2CC[C@H](NC(=O)c1ccc(S(C)(=O)=O)cc1)c1cccc(F)c1 (stereo not given in full),8 nM,–,–,–,–
Cc1nc2cc(F)ccc2n1C1C[C@H]2CC[C@@H](C1)N2CC[C@H](NC(=O)c1cc[n+]([O-])cc1)c1cccc(F)c1 (stereo not given in full),0.1 nM,–,–,–,–
CCc1nc2ccccc2n1C1C[C@H]2CC[C@@H](C1)N2CC[C@H](NC(=O)c1cc[n+]([O-])cc1)c1cccc(F)c1 (stereo not given in full),24 nM,–,–,–,–
Cc1nc2ccc(F)cc2n1C1C[C@H]2CC[C@@H](C1)N2CC[C@H](NC(=O)c1ccc[n+]([O-])c1)c1cccc(F)c1 (stereo not given in full),0.5 nM,–,–,–,–
Cc1nc2cc(F)ccc2n1C1C[C@H]2CC[C@@H](C1)N2CC[C@H](NC(=O)c1ccc[n+]([O-])c1)c1cccc(F)c1 (stereo not given in full),1 nM,–,–,–,–
Cc1nc2ccncc2n1C1C[C@H]2CC[C@@H](C1)N2CC[C@H](NC(=O)C1CCS(=O)(=O)CC1)c1cccc(F)c1 (stereo not given in full),0.2 nM,Not Active,< 8 µL/min/mg,1 ×10⁻⁶ cm/s,–
Cc1nc2ccncc2n1C1C[C@H]2CC[C@@H](C1)N2CC[C@H](NC(=O)c1cc[n+]([O-])cc1)c1cccc(F)c1 (stereo not given in full),4 nM,–,–,–,–
Cc1nc2ccccc2n1C1C[C@H]2CC[C@@H](C1)N2CC[C@H](NC(=O)C1CCSCC1)c1cccc(F)c1 (stereo not given in full),0.2 nM,–,> 320 µL/min/mg,29 ×10⁻⁶ cm/s,AUC [9]: 10 ng·h/mL; Vd [10]: 2 L/kg; CL free [11]: 2431 mL/min/kg; IC50 [12]: 740 nM; fAUC [13]: 6.7 ng·h/mL; logD [7]: 3.7; fAUC [14]: 0.25 ng·h/mL; bioavailability [15]: 1%; Fa [8]: 9%; Vdu [16]: 81 L/kg; microsomal CLint [17]: > 510 µL/min/mg; AUC [18]: 270 ng·h/mL; clearance [19]: 60 mL/min/kg; half-life [20]: 0.8 h
Cc1nc2ccccc2n1C1C[C@H]2CC[C@@H](C1)N2CC[C@H](NC(=O)[C@H]1CC[S@@+]([O-])CC1)c1cccc(F)c1 (stereo not given in full),–,–,36 µL/min/mg,1 ×10⁻⁶ cm/s,AUC [9]: 11 ng·h/mL; Papp A→B at 5 µM [2]: 2 ×10⁻⁶ cm/s; Papp A→B at 5 µM [3]: 20 ×10⁻⁶ cm/s; fAUC [14]: 1.7 ng·h/mL
Cc1nc2ccccc2n1C1C[C@H]2CC[C@@H](C1)N2CC[C@H](NC(=O)[C@H]1CC[S@+]([O-])CC1)c1cccc(F)c1 (stereo not given in full),–,–,111 µL/min/mg,1 ×10⁻⁶ cm/s,AUC [9]: 2 ng·h/mL; fAUC [14]: 0.3 ng·h/mL
Cc1nc2ccccc2n1C1C[C@H]2CC[C@@H](C1)N2CC[C@H](NC(=O)C1CC[S+]([O-])CC1)c1cccc(F)c1 (stereo not given in full),0.2 nM,Not Active,38 µL/min/mg,0.8 ×10⁻⁶ cm/s,Vd [21]: 23 L/kg; half-life [22]: 2.6 h; bioavailability [23]: < 1%; IC50 [12]: > 10000 nM; logD [7]: 2.3; clearance [24]: 104 mL/min/kg
Cc1nc2ccccc2n1C1C[C@H]2CC[C@@H](C1)N2CC[C@H](NC(=O)C1CCS(=O)(=O)CC1)c1cccc(F)c1 (stereo not given in full),0.2 nM,Not Active,23 µL/min/mg,4 ×10⁻⁶ cm/s,AUC [9]: < 1 ng·h/mL; Papp A→B at 5 µM [2]: < 1 ×10⁻⁶ cm/s; Papp A→B at 5 µM [3]: 20 ×10⁻⁶ cm/s; fAUC [14]: < 0.1 ng·h/mL
CC[S+]([O-])CC(=O)N[C@@H](CCN1[C@@H]2CC[C@H]1CC(n1c(C)nc3ccccc31)C2)c1cccc(F)c1 (stereo not given in full),> 100 nM,–,–,–,–
Cc1nc2ccccc2n1C1C[C@H]2CC[C@@H](C1)N2CC[C@H](NC(=O)c1cc[n+]([O-])cc1)c1cccc(F)c1 (stereo not given in full),4 nM,–,–,–,–
Cc1nc2ccccc2n1C1C[C@H]2CC[C@@H](C1)N2CC[C@H](NC(=O)c1ccc[n+]([O-])c1)c1cccc(F)c1 (stereo not given in full),5 nM,–,–,–,–
Cc1nc2ccccc2n1C1C[C@H]2CC[C@@H](C1)N2CC[C@H](NC(=O)c1cccc[n+]1[O-])c1cccc(F)c1 (stereo not given in full),> 100 nM,–,–,–,–
Cc1nc2cnccc2n1C1C[C@H]2CC[C@@H](C1)N2CC[C@H](NC(=O)C1CC[S+]([O-])CC1)c1cccc(F)c1 (stereo not given in full),4 nM,–,–,–,–
Cc1nc2ccncc2n1C1C[C@H]2CC[C@@H](C1)N2CCC(NC(=O)C1CC[S+]([O-])CC1)c1cccc(F)c1 (stereo not given in full),1 nM,Not Active,50 µL/min/mg,–,Papp A→B at 5 µM [2]: 2 ×10⁻⁶ cm/s; Papp A→B at 5 µM [3]: 2 ×10⁻⁶ cm/s
